In patent US20230165872A1, “COMBINATION OF BCMA-DIRECTED T CELL THERAPY AND AN IMMUNOMODULATORY COMPOUND” (Juno Therapeutics, Inc., priority 2020, published 2023):

Key:
Type in all cases: cell-based, human
RPMI-8226 target cells [1] = assay: Rescue: rechallenge of chronically stimulated anti-BCMA CAR T cells with RPMI-8226 in the presence of compound
Description: Anti-BCMA CAR-expressing T cells, produced as described in Example 1, were stimulated with 50 μg BCMA conjugated beads (diameter about 4.5 μm from a 50 μg/ml BCMA-conjugated bead composition) substantially as described in Example 3 to induce chronic stimulation (to produce hypofunctional, exhausted T cells). After the chronic stimulation, the CAR-T cells were rechallenged with RPMI-8226 target cells (labeled with NucLightRed as described in Example 2) at a 1:1 (effector:target) ratio in the presence of (rescued) with Compound A (iberdomide, (S)-3-[4-(4-morpholin-4-ylmethyl-benzyloxy)-1-oxo-1,3-dihydro-isoindol-2-yl]-piperidine-2,6-dione) (1 nM or 10 nM), Compound B ((S)-4-(4-(4-(((2-(2,6-dioxopiperidin-3-yl)-1-oxoisoindolin-4-yl)oxy)methyl)benzyl)piperazin-1-yl)-3-fluorobenzonitrile) (0.1 nM or 1 nM), or DMSO vehicle control.
Killing activity and cytokine production were assessed as described in Example 3.
Studies were undertaken to determine whether Compound A (iberdomide, (S)-3-[4-(4-morpholin-4-ylmethyl-benzyloxy)-1-oxo-1,3-dihydro-isoindol-2-yl]-piperidine-2,6-dione) rescued anti-BCMA CAR T cell function following chronic stimulation. To directly stimulate via CAR engagement to induce chronic stimulation of cells, anti-BCMA CAR T cells were stimulated with BCMA conjugated beads (diameter about 4.5 μm from a 50 μg/ml BCMA-conjugated bead composition, generated as described in Example 9) at a ratio of T cells to beads of 1:1. The cells were then incubated at 37° C., 5% CO2 for 7 days.
Cultures were incubated at 37° C., 5% CO2, and images were taken every 2 hours over 5-7 days with an Essen IncuCyte Zoom live-cell analysis system to track NucLightRed-positive target cells.

Aiolos = assay: Intracellular Aiolos expression in BCMA-bead stimulated anti-BCMA CAR T cells (flow cytometry, MFI); conditions: CD4+CAR+ or CD8+CAR+ cells; 24 or 72 hours; lenalidomide 1000 nM, Compound A 1, 10, 100 nM, Compound B 0.1, 1, 10 nM
Description: A BCMA-Fc fusion protein containing the extracellular domain of human BCMA and a human IgG1Fc was conjugated to beads by covalently coupling to the surface of commercially available tosyl-activated magnetic beads having a diameter of approximately […] (M-450 beads, ThermoFisher, Waltham Mass.) (see e.g. International published PCT App. No. WO2019/027850). Following incubation, anti-BCMA CAR-expressing T cells were stained with antibodies and analyzed by flow cytometry to assess intracellular levels of Ikaros and Aiolos in CD4+CAR+ or CD8+CAR+ cells, as measured by median fluorescence intensity (MFI). Median fluorescence intensity (MFI) values for Ikaros and Aiolos were normalized and calculated as a percentage relative to vehicle control.

RPMI-8226 target cells [2] = assay: Rechallenge with RPMI-8226 after concurrent compound treatment during chronic stimulation (cytolysis, cytokines)
Description: Cryofrozen anti-BCMA CAR T cells, produced substantially as described in Example 1 and formulated at a 1:1 ratio of CD4+ and CD8^+ T cells, were thawed. To subject cells to chronic stimulation conditions, the anti-BCMA CAR+ T cells were stimulated with 50 μg BCMA conjugated beads (diameter about 4.5 μm from a 50 μg/ml BCMA-conjugated bead composition, generated as described in Example 2) at a ratio of T cells to beads of 1:1 in the presence or absence of Compound A (iberdomide, (S)-3-[4-(4-morpholin-4-ylmethyl-benzyloxy)-1-oxo-1,3-dihydro-isoindol-2-yl]-piperidine-2,6-dione) (1 nM or 10 nM), Compound B ((S)-4-(4-(4-(((2-(2,6-dioxopiperidin-3-yl)-1-oxoisoindolin-4-yl)oxy)methyl)benzyl)piperazin-1-yl)-3-fluorobenzonitrile) (0.1 nM or 1 nM), or DMSO vehicle control. The cells were then incubated at 37° C., 5% CO2 for 7 days.
CAR T cells that had been stimulated for 7 days with cultured with 50 μg BCMA-coated magnetic beads concurrently in the presence of the cell immunomodulatory compound were washed free of compound and cells were debeaded. The anti-BCMA CAR T cells that had been stimulated for 7 days with BCMA-conjugated beads in the presence of the compounds were co-cultured with RPMI-8226 target cells (labeled with NucLightRed as described in Example 2) at a 1:1 (effector:target) ratio. Killing activity was monitored over 200 hours by measuring NucLightRed (NLR)-positive target cells. The total cell number of NLR-expressing RPMI targets cells was determined by normalizing cell number over time to the number of cells at the initiation of the co-culture (t=0) for each respective condition.
For cytokine measurements, cell-free supernatants were collected from the cytolytic assay described above 24 hours after plating. Cytokine levels of IFNg, IL-2, and TNFalpha (TNFα) was measured in the supernatant.
Cryofrozen anti-BCMA CAR T cells, produced substantially as described in Example 1 and formulated at a 1:1 ratio of CD4+ and CD8+ T cells, were thawed. […] The cells were then incubated at 37° C., 5% CO2 for 7 days.
Cytolytic activity was assessed using OPM-2 and RPMI-8226 BCMA expressing target cells transduced with NucLight Red, a red fluorescent protein detectable by microscopy, to allow for measurement of target cell death. Anti-BCMA CAR T cells that had been stimulated for 7 days with BCMA-conjugated beads in the presence of the compounds were co-cultured with RPMI-8226 target cells at a 0.3:1 (effector:target) or 1:1 ratio. Cultures were incubated at 37° C., 5% CO2, and images were taken every 2 hours over 5-7 days with an Essen IncuCyte Zoom live-cell analysis system to track NucLightRed-positive target cells.
For cytokine measurements, cell-free supernatants were collected from the cytolytic assay described above 24 hours after plating. Cytokine levels were measured using IFNg, IL-2, and TNFalpha Meso Scale Discovery cytokine kit (Mesoscale) according to manufacturer instructions. The data was analyzed using GraphPad Prism to calculate absolute changes in cytokine relative to the DMSO vehicle control.

For `O=C1CC[C@H](N2Cc3c(OCc4ccc(CN5CCOCC5)cc4)cccc3C2=O)C(=O)N1` [Compound A, (S)-3-[4-(4-morpholin-4-ylmethyl-benzyloxy)-1-oxo-1,3-dihydro-isoindol-2-yl]-piperidine-2,6-dione], the “rescue of chronically activated CAR T cells” value (RPMI-8226 target cells [1]; Example 4: Compound A 1 or 10 nM, Compound B 0.1 or 1 nM during re-challenge) was “able to rescue chronically activated CAR T cells to improve functionality”, the “cytolytic activity, compound present during re-challenge” value (RPMI-8226 target cells [1]; Example 8: E:T 0.3:1, Compound A 1 nm or 10 nM, versus no compound, FIG. 10A) was “improvement in cytolytic activity” and the “production of IFN-gamma” value (RPMI-8226 target cells [1]; Example 8: supernatant at 24 hours, FIG. 10B) was “increased production”. The “production of IL-2” value (RPMI-8226 target cells [1]; Example 8: supernatant at 24 hours, FIG. 10C) was “increased production”, the “production of TNF-alpha” value (RPMI-8226 target cells [1]; Example 8: supernatant at 24 hours, FIG. 10D) was “increased production” and the “intracellular Aiolos expression (MFI, percentage relative to vehicle control)” value (Aiolos) was “concentration dependent decrease”. The “cytolytic activity after long-term stimulation in the presence of compound” value (RPMI-8226 target cells [2]; Example 7: E:T 0.3:1, lenalidomide 1000 nM, Compound A 1 or 10 nM, FIG. 9A) was “increased cytolytic activity”, the “production of IFN-gamma” value (RPMI-8226 target cells [2]; Example 7: supernatant at 24 hours, relative to DMSO, FIG. 9B) was “increased production” and the “production of IL-2” value (RPMI-8226 target cells [2]; Example 7: supernatant at 24 hours, relative to DMSO, FIG. 9C) was “increased production”. The “production of TNF-alpha” value (RPMI-8226 target cells [2]; Example 7: supernatant at 24 hours, relative to DMSO, FIG. 9D) was “increased production”.
